Experimental data taken from patent publication US20250243196A1, “CITRON KINASE INHIBITORS” (The Cleveland Clinic Foundation, priority 2021, published 2025).

Columns and labels:
Assay in all cases: KinaseProfiler panel
Type in all cases: biochemical
Details in all cases: activity remaining
[1] = molecular target: AMPKα1(h) (Homo sapiens (Human), UniProt Q13131); set-up: dose or concentration left out as unconfirmed
[2] = molecular target: CaMKIβ(h) (Homo sapiens (Human), UniProt Q6P2M8); set-up: dose or concentration left out as unconfirmed
[3] = molecular target: CDK6/cyclinD3(h) (Homo sapiens (Human), UniProt Q00534); set-up: dose or concentration left out as unconfirmed
[4] = molecular target: CDKL3(h) (Homo sapiens (Human), UniProt Q8IVW4); set-up: dose or concentration left out as unconfirmed
[5] = molecular target: ChaK1(h) (Homo sapiens (Human), UniProt Q96QT4); set-up: dose or concentration left out as unconfirmed
[6] = molecular target: CK2α1(h) (Homo sapiens (Human), UniProt P68400); set-up: dose or concentration left out as unconfirmed
CK2α1(h), sequence (P68400 whole entry): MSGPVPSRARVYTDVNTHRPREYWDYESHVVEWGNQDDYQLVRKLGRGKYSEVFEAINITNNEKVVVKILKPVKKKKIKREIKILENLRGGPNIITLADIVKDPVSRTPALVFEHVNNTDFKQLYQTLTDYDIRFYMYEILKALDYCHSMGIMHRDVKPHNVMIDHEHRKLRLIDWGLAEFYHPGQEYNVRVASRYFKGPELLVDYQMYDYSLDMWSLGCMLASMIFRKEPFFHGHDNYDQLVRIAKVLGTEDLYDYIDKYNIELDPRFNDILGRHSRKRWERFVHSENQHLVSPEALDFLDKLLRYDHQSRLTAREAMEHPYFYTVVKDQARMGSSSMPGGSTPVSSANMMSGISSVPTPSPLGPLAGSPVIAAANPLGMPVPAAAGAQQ

[7] = molecular target: EGFR(h) (Homo sapiens (Human), UniProt P00533); set-up: dose or concentration left out as unconfirmed
[8] = molecular target: EphB3(h) (Homo sapiens (Human), UniProt P54753); set-up: dose or concentration left out as unconfirmed
[9] = molecular target: FGFR1(h) (Homo sapiens (Human), UniProt P11362); set-up: dose or concentration left out as unconfirmed
[10] = molecular target: Flt4(h) (Homo sapiens (Human), UniProt P35916); set-up: dose or concentration left out as unconfirmed
[11] = molecular target: Fyn(h) (Homo sapiens (Human), UniProt P06241); set-up: dose or concentration left out as unconfirmed
Fyn(h), sequence (P06241 whole entry): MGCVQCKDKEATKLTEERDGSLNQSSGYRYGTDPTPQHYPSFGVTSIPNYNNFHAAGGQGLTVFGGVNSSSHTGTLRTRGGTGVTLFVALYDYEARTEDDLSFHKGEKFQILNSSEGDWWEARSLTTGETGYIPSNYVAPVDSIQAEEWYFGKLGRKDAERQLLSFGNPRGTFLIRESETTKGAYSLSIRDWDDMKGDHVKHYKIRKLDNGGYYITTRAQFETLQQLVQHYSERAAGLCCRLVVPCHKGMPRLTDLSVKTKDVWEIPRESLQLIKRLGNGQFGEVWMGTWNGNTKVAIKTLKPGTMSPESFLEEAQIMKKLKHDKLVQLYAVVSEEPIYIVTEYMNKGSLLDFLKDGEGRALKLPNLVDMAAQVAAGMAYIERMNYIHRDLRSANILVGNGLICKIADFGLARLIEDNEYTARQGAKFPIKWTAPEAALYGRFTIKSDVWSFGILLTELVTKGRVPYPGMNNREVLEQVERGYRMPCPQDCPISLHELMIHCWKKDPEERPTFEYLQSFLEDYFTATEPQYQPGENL

[12] = molecular target: Hck(h) (Homo sapiens (Human), UniProt P08631); set-up: dose or concentration left out as unconfirmed
Hck(h), sequence (P08631 whole entry): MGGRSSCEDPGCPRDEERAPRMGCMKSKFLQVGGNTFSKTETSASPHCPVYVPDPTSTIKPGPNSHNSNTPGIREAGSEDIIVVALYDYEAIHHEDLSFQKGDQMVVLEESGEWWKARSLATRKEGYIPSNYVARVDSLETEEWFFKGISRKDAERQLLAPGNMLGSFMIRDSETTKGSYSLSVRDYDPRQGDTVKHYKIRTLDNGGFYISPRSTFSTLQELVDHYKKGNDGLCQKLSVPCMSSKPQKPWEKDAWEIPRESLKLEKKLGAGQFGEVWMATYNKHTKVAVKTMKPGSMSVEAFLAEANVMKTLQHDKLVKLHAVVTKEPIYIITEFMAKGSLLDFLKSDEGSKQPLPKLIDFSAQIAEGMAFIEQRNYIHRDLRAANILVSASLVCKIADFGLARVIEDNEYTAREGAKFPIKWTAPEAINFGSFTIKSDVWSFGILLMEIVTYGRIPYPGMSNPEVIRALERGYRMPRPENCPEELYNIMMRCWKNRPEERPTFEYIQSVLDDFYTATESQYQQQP

[13] = molecular target: HPK1(h) (Homo sapiens (Human), UniProt Q92918); set-up: dose or concentration left out as unconfirmed
[14] = molecular target: IRE1(h) (Homo sapiens (Human), UniProt O75460); set-up: dose or concentration left out as unconfirmed
[15] = molecular target: MSK1(h) (Homo sapiens (Human), UniProt O75582); set-up: dose or concentration left out as unconfirmed
[16] = molecular target: MST3(h) (Homo sapiens (Human), UniProt Q9Y6E0); set-up: dose or concentration left out as unconfirmed
[17] = molecular target: MuSK(h) (Homo sapiens (Human), UniProt O15146); set-up: dose or concentration left out as unconfirmed
[18] = molecular target: NEK1(h) (Homo sapiens (Human), UniProt Q96PY6); set-up: dose or concentration left out as unconfirmed
[19] = molecular target: NEK11(h) (Homo sapiens (Human), UniProt Q8NG66); set-up: dose or concentration left out as unconfirmed
[20] = molecular target: NEK2(h) (Homo sapiens (Human), UniProt P51955); set-up: dose or concentration left out as unconfirmed
[21] = molecular target: NEK4(h) (Homo sapiens (Human), UniProt P51957); set-up: dose or concentration left out as unconfirmed
NEK4(h), sequence (P51957 whole entry): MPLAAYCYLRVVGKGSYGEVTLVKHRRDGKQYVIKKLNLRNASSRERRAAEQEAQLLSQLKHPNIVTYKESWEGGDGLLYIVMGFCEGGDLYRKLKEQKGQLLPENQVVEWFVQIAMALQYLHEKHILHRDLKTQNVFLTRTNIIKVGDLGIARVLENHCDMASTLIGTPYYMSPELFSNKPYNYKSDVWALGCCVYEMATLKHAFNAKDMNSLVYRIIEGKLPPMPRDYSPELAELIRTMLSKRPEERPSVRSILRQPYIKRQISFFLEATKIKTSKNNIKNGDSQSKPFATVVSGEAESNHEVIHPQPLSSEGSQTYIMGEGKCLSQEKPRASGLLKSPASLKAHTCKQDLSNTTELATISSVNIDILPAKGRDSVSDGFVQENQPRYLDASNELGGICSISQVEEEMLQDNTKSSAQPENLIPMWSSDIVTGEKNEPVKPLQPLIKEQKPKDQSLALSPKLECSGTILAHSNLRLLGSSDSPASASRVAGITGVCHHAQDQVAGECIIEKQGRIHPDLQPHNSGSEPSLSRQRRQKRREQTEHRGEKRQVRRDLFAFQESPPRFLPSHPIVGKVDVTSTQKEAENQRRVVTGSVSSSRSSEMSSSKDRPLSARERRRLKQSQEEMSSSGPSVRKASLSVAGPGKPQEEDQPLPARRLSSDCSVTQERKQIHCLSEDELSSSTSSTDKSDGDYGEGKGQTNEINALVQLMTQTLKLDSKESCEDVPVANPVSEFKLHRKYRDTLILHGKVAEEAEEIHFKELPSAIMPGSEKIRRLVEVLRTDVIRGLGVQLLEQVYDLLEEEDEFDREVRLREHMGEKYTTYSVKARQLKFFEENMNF

[22] = molecular target: PI3 Kinase (p120g)(h) (Homo sapiens (Human), UniProt P48736)
[23] = molecular target: PI3KC2a(h) (Homo sapiens (Human), UniProt O00443); set-up: dose or concentration left out as unconfirmed
[24] = molecular target: PIP4K2a(h) (Homo sapiens (Human), UniProt P48426); set-up: dose or concentration left out as unconfirmed
[25] = molecular target: PKCζ(h) (Homo sapiens (Human), UniProt Q05513); set-up: dose or concentration left out as unconfirmed
PKCζ(h), sequence (Q05513 whole entry): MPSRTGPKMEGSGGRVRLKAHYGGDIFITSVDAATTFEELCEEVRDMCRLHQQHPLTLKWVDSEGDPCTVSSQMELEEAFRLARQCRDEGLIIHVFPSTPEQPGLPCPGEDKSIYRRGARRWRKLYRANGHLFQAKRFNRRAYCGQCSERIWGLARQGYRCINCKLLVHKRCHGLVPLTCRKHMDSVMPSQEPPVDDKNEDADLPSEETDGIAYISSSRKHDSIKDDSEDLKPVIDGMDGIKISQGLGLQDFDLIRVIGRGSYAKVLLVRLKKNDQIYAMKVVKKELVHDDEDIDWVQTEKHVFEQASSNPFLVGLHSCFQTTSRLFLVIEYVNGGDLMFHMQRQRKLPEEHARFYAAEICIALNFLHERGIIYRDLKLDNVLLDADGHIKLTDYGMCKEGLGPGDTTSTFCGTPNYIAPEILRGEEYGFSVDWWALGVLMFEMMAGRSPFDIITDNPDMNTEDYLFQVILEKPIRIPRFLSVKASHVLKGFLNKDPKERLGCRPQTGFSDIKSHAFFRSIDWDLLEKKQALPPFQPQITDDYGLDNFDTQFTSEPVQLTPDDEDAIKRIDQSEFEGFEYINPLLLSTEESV

[26] = molecular target: PKCμ(h) (Homo sapiens (Human), UniProt Q15139); set-up: dose or concentration left out as unconfirmed
[27] = molecular target: Plk4(h) (Homo sapiens (Human), UniProt O00444); set-up: dose or concentration left out as unconfirmed
[28] = molecular target: Rsk1(h) (Homo sapiens (Human), UniProt Q15418); set-up: dose or concentration left out as unconfirmed
[29] = molecular target: SAPK2b(h) (Homo sapiens (Human), UniProt Q15759); set-up: dose or concentration left out as unconfirmed
SAPK2b(h), sequence (Q15759 whole entry): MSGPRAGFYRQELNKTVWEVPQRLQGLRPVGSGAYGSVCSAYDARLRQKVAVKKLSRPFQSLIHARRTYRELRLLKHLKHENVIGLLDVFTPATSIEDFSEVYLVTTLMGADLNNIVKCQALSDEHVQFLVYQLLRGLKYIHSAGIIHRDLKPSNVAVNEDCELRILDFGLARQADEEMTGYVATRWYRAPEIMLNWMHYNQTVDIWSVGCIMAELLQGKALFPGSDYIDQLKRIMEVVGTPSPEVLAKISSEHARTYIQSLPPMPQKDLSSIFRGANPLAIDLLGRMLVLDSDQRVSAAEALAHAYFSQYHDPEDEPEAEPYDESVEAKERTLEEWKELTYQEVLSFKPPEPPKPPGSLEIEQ

[30] = molecular target: Tie2 (h) (Homo sapiens (Human), UniProt Q02763); set-up: dose or concentration left out as unconfirmed
[31] = molecular target: TSSK2(h) (Homo sapiens (Human), UniProt Q96PF2); set-up: dose or concentration left out as unconfirmed
[32] = molecular target: WNK3(h) (Homo sapiens (Human), UniProt Q9BYP7); set-up: dose or concentration left out as unconfirmed
WNK3(h), sequence (Q9BYP7 whole entry): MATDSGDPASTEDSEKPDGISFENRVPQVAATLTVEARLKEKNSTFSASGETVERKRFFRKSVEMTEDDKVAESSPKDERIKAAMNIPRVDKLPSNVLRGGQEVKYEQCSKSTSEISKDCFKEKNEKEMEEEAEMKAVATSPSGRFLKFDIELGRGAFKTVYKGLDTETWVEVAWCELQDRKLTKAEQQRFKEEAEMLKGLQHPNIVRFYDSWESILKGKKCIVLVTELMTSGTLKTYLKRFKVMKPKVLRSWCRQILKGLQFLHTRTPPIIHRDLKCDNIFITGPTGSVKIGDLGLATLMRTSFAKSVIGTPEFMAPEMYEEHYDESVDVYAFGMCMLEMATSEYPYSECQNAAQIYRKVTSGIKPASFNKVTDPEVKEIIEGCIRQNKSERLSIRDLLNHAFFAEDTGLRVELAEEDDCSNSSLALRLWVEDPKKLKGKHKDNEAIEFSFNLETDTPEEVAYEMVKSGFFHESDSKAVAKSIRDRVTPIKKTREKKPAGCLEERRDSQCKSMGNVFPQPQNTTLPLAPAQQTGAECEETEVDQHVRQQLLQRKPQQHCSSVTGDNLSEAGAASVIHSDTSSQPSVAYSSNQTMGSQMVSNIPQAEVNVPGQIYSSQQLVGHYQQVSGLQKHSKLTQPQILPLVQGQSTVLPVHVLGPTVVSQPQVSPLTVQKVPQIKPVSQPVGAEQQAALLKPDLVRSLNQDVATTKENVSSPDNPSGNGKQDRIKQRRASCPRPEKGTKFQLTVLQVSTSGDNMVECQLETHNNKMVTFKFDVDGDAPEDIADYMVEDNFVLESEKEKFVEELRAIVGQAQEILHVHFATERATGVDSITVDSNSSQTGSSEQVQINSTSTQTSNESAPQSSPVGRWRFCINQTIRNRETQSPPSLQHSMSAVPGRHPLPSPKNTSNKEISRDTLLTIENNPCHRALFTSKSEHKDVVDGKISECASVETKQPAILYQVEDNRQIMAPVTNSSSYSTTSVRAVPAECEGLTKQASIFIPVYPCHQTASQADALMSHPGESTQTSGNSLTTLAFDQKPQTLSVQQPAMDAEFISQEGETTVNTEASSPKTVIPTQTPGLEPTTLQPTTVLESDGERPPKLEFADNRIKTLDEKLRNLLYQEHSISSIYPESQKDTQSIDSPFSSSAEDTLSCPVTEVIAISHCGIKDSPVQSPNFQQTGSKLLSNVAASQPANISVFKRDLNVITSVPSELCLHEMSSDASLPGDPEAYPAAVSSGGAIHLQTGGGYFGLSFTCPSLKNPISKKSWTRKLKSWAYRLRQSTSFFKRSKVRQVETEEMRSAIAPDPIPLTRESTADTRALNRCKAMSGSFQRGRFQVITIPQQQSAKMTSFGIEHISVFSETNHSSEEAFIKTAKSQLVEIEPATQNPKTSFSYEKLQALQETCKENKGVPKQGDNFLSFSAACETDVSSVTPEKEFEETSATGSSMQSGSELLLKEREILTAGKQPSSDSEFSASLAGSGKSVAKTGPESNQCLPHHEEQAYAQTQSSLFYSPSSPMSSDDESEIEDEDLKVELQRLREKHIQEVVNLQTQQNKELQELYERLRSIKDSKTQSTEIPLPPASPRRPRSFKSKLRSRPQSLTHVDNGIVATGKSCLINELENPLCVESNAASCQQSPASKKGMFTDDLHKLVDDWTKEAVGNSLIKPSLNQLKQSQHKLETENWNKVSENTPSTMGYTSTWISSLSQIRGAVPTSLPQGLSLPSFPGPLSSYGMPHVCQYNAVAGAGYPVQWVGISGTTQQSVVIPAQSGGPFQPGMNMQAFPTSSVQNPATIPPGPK

[33] = molecular target: Yes(h) (Homo sapiens (Human), UniProt P07947); set-up: dose or concentration left out as unconfirmed

Structure (SMILES): Cc1cc2c(-c3ccc(NC(=O)[C@H](N)CC(C)(C)C)cc3C)ccnc2[nH]1 [Compound F-90, (2R)-2-Amino-4,4-dimethyl-N-[3-methyl-4-(2-methyl-1H-pyrrolo[2,3-b]pyridin-4-yl)phenyl]pentanamide]
- % Activity [1]: 120%
- % Activity [2]: 85%
- % Activity [3]: 90%
- % Activity [4]: 79%
- % Activity [5]: 106%
- % Activity [6]: 112%
- % Activity [7]: 107%
- % Activity [8]: 79%
- % Activity [9]: 100%
- % Activity [10]: 96%
- % Activity [11]: 100%
- % Activity [12]: 99%
- % Activity [13]: 73%
- % Activity [14]: 99%
- % Activity [15]: 111%
- % Activity [16]: 85%
- % Activity [17]: 96%
- % Activity [18]: 94%
- % Activity [19]: 97%
- % Activity [20]: 118%
- % Activity [21]: 90%
- % Activity [22]: 105%
- % Activity [23]: 102%
- % Activity [24]: 100%
- % Activity [25]: 88%
- % Activity [26]: 109%
- % Activity [27]: 92%
- % Activity [28]: 99%
- % Activity [29]: 90%
- % Activity [30]: 99%
- % Activity [31]: 113%
- % Activity [32]: 85%
- % Activity [33]: 87%
